# Measured values: article PMC4468608, “A distinct p53 target gene set predicts for response to the selective p53–HDM2 inhibitor NVP-CGM097” (eLife, 2015)
# Where two headings read alike, the source gives them in different places.
# Tested on: cell lines from the Cancer Cell Line Encyclopedia (CCLE)
# Assay: High-throughput cell viability assay, CCLE cell line panel (n = 356)
# Assay type: cell-based, human
# Conditions: Homo sapiens
# Experimental: Cell lines were partitioned into sensitive and insensitive groups based on compound potency (IC50). […] All other cell lines were obtained from ATCC (American Type Culture Collection), DSMZ (Deutsche Sammlung von Mikroorganismen und Zellkulturen), and HSRRB (Health Science Research Resources Bank) and cultured in RPMI or Dulbecco's modified Eagle's medium plus 10% FBS (Invitrogen, Carlsbad, CA) at 37°C, 5% CO2.
smiles,measurement,setting,value
COc1cc2c(cc1OC(C)C)[C@H](c1ccc(Cl)cc1)N(c1ccc(N(C)C[C@H]3CC[C@H](N4CCNC(=O)C4)CC3)cc1)C(=O)C2 [NVP-CFC218],IC50,"PC-3, TP53 MUT",> 8 µM
same,IC50,"PC-14, PC-14, TP53 MUT",> 8 µM
same,IC50,"PE/CA-PJ34 (clone C12), TP53 MUT",> 8 µM
same,IC50,"PE/CA-PJ49, TP53 WT",> 8 µM
same,IC50,"PK-1, TP53 MUT",> 8 µM
same,IC50,"PK-45H, TP53 WT",> 8 µM
same,IC50,"PL-21, PL-21, TP53 MUT",> 8 µM
same,IC50,"PSN1, PSN1, TP53 MUT",> 8 µM
same,IC50,"PaTu 8902, PA-TU-8902, TP53 MUT",> 8 µM
same,IC50,"Panc 04.03, Panc 04.03, TP53 MUT",> 8 µM
same,IC50,"QGP-1, QGP-1, TP53 WT",> 8 µM
same,IC50,"RCM-1, RCM-1, TP53 MUT",> 8 µM
same,IC50,"RERF-GC-1B, TP53 MUT",> 8 µM
same,IC50,"RERF-LC-AI, TP53 WT",> 8 µM
same,IC50,"RERF-LC-MS, TP53 MUT",> 8 µM
same,IC50,"RKO, TP53 WT",6.44 µM
same,IC50,"RPMI 8402, RPMI-8402, TP53 MUT",> 8 µM
same,IC50,"RT-112, RT-112, TP53 MUT",> 8 µM
same,IC50,"Raji, TP53 MUT",> 8 µM
same,IC50,"Reh, TP53 WT",2.63 µM
same,IC50,"S-117, S-117, TP53 MUT",> 8 µM
same,IC50,"SBC-5, SBC-5, TP53 MUT",> 8 µM
same,IC50,"SCC-4, SCC-4, TP53 MUT",> 8 µM
same,IC50,"SCC-9, SCC-9, TP53 MUT",> 8 µM
same,IC50,"SCC-25, SCC-25, TP53 MUT",> 8 µM
same,IC50,"SCaBER, read-out: NVP- CFC218 IC50 (µM), cell line SCaBER, urinary_tract, TP53 MUT",> 8 µM
same,IC50,"SF-295, SF-295, TP53 MUT",> 8 µM
same,IC50,"SH-10-TC, TP53 MUT",> 8 µM
same,IC50,"SHP77, SHP-77, TP53 MUT",> 8 µM
same,IC50,"SJRH30, SJRH30, TP53 MUT",> 8 µM
same,IC50,"SK-BR-3, SK-BR-3, TP53 MUT",> 8 µM
same,IC50,"SK-HEP1, read-out: NVP- CFC218 IC50 (µM), cell line SK-HEP-1, liver, TP53 WT",> 8 µM
same,IC50,"SK-LMS-1, SK-LMS-1, TP53 MUT",> 8 µM
same,IC50,"SK-LU-1, SK-LU-1, TP53 MUT",> 8 µM
same,IC50,"SK-MEL-5, read-out: NVP- CFC218 IC50 (µM), cell line SK-MEL-5, skin, TP53 WT",> 8 µM
same,IC50,"SK-MEL-24, read-out: NVP- CFC218 IC50 (µM), cell line SK-MEL-24, skin, TP53 WT",> 8 µM
same,IC50,"SK-MEL-30, SK-MEL-30, TP53 MUT",> 8 µM
same,IC50,"SK-MES-1, SK-MES-1, TP53 MUT",> 8 µM
same,IC50,"SK-N-AS, TP53 WT",> 8 µM
same,IC50,"SK-N-FI, TP53 MUT",> 8 µM
same,IC50,"SK-OV-3, SK-OV-3, TP53 MUT",> 8 µM
same,IC50,"SNU-182, SNU-182, TP53 MUT",> 8 µM
same,IC50,"SNU-423, read-out: NVP- CFC218 IC50 (µM), cell line SNU-423, liver, TP53 MUT",> 8 µM
same,IC50,"SNU-475, SNU-475, TP53 MUT",> 8 µM
same,IC50,"SU-DHL-4, SU-DHL-4, TP53 MUT",> 8 µM
same,IC50,"SU-DHL-8, SU-DHL-8, TP53 MUT",> 8 µM
same,IC50,"SUP-M2, SUP-M2, TP53 WT",1.01 µM
same,IC50,"SW480, SW480, TP53 MUT",> 8 µM
same,IC50,"SW579, SW579, TP53 MUT",> 8 µM
same,IC50,"SW780, read-out: NVP- CFC218 IC50 (µM), cell line SW 780, urinary_tract, TP53 WT",> 8 µM
same,IC50,"SW900, SW 900, TP53 MUT",> 8 µM
same,IC50,"SW1271, SW 1271, TP53 MUT",> 8 µM
same,IC50,"SW1353, SW 1353, TP53 MUT",4.91 µM
same,IC50,"SW1417, SW1417, TP53 MUT",> 8 µM
same,IC50,"SW1573, read-out: NVP- CFC218 IC50 (µM), cell line SW 1573, lung, TP53 WT",> 8 µM
same,IC50,"SW1783, SW 1783, TP53 MUT",> 8 µM
same,IC50,"SW1990, SW 1990, TP53 MUT",> 8 µM
same,IC50,"SW-403, read-out: NVP- CFC218 IC50 (µM), cell line SW403, large_intestine, TP53 MUT",> 8 µM
same,IC50,"T98G, TP53 MUT",> 8 µM
same,IC50,"TE 617.T, TP53 WT",2.91 µM
same,IC50,"TE-1, TP53 MUT",> 8 µM
same,IC50,"TE-5, TP53 MUT",> 8 µM
same,IC50,"TE-11, read-out: NVP- CFC218 IC50 (µM), cell line TE-11, oesophagus, TP53 MUT",> 8 µM
same,IC50,"TOV21G, TOV-21G, TP53 WT",5.41 µM
same,IC50,"TT2609-C02, TP53 MUT",> 8 µM
same,IC50,"U-87 MG, TP53 WT",> 8 µM
same,IC50,"U-937, U-937, TP53 MUT",> 8 µM
same,IC50,"UMUC3, read-out: NVP- CFC218 IC50 (µM), cell line UM-UC-3, urinary_tract, TP53 MUT",> 8 µM
same,IC50,"VMRC-RCZ, TP53 WT",> 8 µM
same,IC50,"WM 266-4, WM-266-4, TP53 WT",1.46 µM
same,IC50,"WM983B, WM-983B, TP53 MUT",> 8 µM
same,IC50,"WM-115, WM-115, TP53 WT",3.38 µM
same,IC50,"WSUDLCL2, WSU-DLCL2, TP53 MUT",> 8 µM
same,IC50,"YKG-1, YKG1, TP53 MUT",> 8 µM
same,IC50,"read-out: NVP- CFC218 IC50 (µM), cell line BICR 31, upper_aerodigestive_tract, TP53 MUT",> 8 µM
same,IC50,"read-out: NVP- CFC218 IC50 (µM), cell line C3A, liver, TP53 WT",> 8 µM
same,IC50,"read-out: NVP- CFC218 IC50 (µM), cell line C32, skin, TP53 WT",> 8 µM
same,IC50,"read-out: NVP- CFC218 IC50 (µM), cell line CCK-81, large_intestine, TP53 MUT",> 8 µM
same,IC50,"read-out: NVP- CFC218 IC50 (µM), cell line ES-2, ovary, TP53 MUT",> 8 µM
same,IC50,"read-out: NVP- CFC218 IC50 (µM), cell line HEC-108, endometrium, TP53 MUT",> 8 µM
same,IC50,"read-out: NVP- CFC218 IC50 (µM), cell line HEC-265, endometrium, TP53 WT",> 8 µM
same,IC50,"read-out: NVP- CFC218 IC50 (µM), cell line Hs 618.T, lung, TP53 WT",> 8 µM
same,IC50,"read-out: NVP- CFC218 IC50 (µM), cell line Hs 888.T, bone, TP53 WT",> 8 µM
same,IC50,"read-out: NVP- CFC218 IC50 (µM), cell line Hs 944.T, skin, TP53 WT",> 8 µM
same,IC50,"read-out: NVP- CFC218 IC50 (µM), cell line JHOS-2, ovary, TP53 MUT",> 8 µM
